Data reported in US20120071493A1, “SUBSTITUTED 8-SULFONYL-2,3,4,5-TETRAHYDRO-1H-GAMMA-CARBOLINES, LIGANDS AND PHARMACEUTICAL COMPOSITION; METHOD FOR THE PRODUCTION AND USE OF SAME” (priority 2009, published 2012).

Columns and labels:
mice = assay: Porsolt's Forced Swim Test; type: in vivo; settings: injected for 4 days in doses of 1 mg/kg; 15 minutes test
Method: Mice Behavior in Porsolt's Forced Swim Test. The test apparatus represented a plastic vessel filled with water up to height of 18 cm at 20-22° C. Mice were placed in water and for 15 minutes the duration of immobile hanging in water-so called behavioural […], which is considered to be a measure of depressively-like state, was registered. Automated computerized detection of motion with videosystem and Any-maze programm were used in test. […] This testifies the decreasing of time of a depressively-like state.

[1] = target: T1, recombinant human 5-HT6 receptor (Homo sapiens, UniProt P50406); assay: Antagonistic activity towards serotonin 5-HT6 receptors, cAMP cell function experiment; type: cell-based; settings: HEK 293 cells expressing recombinant human 5-HT6 receptor; cAMP response to 10 μM serotonin; read-out: IC50, ability to block serotonin 5-HT6 receptors in the setting of cell function experiments
T1 construct: host or cells: HEK 293 cells with tetracycline-induced T-Rex system (Invitrogen)
T1 sequence (P50406 whole entry): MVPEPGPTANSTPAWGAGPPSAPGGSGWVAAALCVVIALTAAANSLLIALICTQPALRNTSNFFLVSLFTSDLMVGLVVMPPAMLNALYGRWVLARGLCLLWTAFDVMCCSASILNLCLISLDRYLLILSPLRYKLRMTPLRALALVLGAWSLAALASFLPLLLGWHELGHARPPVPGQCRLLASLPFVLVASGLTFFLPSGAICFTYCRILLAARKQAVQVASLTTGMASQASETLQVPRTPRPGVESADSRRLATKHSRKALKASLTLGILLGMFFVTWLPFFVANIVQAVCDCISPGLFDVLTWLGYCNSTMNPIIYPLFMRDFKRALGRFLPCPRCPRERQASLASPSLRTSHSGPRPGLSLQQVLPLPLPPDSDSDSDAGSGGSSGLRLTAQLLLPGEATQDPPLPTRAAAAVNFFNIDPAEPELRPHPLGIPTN
Method: Determination of antagonistic activity of substituted 8-sulfonyl-2,3,4,5-tetrahydro-1H-γ-carbolines of the general formula 1 towards serotonin 5-HT6 receptors. HEK 293 cells with tetracycline-induced T-Rex system (Invitrogen, USA) consistently expressing recombinant human 5-HT6 receptor, production of Etogen Scientific (USA), were used. The cells were grown in DMEM/10% FBS/1% AAS medium with Blasticidine S and Zeocin (both—Invitrogen, USA). According to the method worked up by the producer of T-Rex system tetracycline hydrochloride was added to the medium with the cells for the purpose of activation of 5-HT6 receptor expression. The cells were embedded in 96-well plates (30,000-40,000 cells per well) and incubated in 5%-CO2 incubator at 37° C. for 24 hs. Before experiments cells medium was replaced by Hank's balanced salt solution (HBSS), comprising 0.137 M NaCl, 5.4 mM KCl, 0.25 mM Na2HPO4, 0.44 mM KH2PO4, 1.3 mM CaCl2, 1.0 mM MgSO4, 5 mM HEPES (pH 7.4), 0.05% BSA and 1 mM IBMX. The tested compounds of general formula 1 were added to the cells in various concentrations. After incubation of the cells for 15 min at room temperature serotonin was added to them up to final concentration of 10 μM and incubation was continued for 30 min. The newly formed cAMP was determined by reagent kit LANCE cAMP Kit, according to the method described by the kit manufacturer […] (PerkinElmer, CIIIA). […] The data given testify that novel γ-carbolines of the general formula 1 are effective serotonin 5-HT6 receptor antagonists. Some of γ-carbolines of the general formula 1 have IC50<0.5 μM in the setting of cell function experiments (IC50—antagonist concentration blocking 5-HT6 receptors for 50%).

male mice of BALB/c line = assay: Passive Avoidance of mice in the Shuttle Chamber, memory disturbed by Scopolamine; type: in vivo; settings: 0.2 mg/kg, 30 minutes before training; retention after 24 hours
Method: 18.1.1. […] Experiments were carried out in aged male mice of BALB/c line weighing 20-25 grams or male rats of Vistar line weighing 200-250 g. A shuttle chamber (Ugo Basile, Italy) consisted of two sections was used. […] The sections were connected through a hole which could be overlapped by vertical door. The floor of the dark section was made of transverse metal bars on which DC current impulses could be fed. On the first day of experiment 30 minutes before training mice were injected […] with Scopolamine which causes memory disturbance. The animals of trial group were additionally injected with a compound of the general formula 1, for example, compound 1.1.1(4).HCl or 1.2.1(3).HCl, in doses of 0.2 mg/kg. The animals of control group were injected with physiological solution. Each group consisted of 8 animals. The animals were placed in the light section, and latent period of the first entry into the dark chamber was registered. Then the vertical door was closed and the animal was punished by 0.6 mA DC current for 3 seconds. After that the animal was taken back to its home cage. In 24 hours the same animal was placed again in the light section of the shuttle chamber and latent period of its first entry into the dark section, the total time of its stay in the light section and the number of entries into dark section was registered. Each monitoring lasted for 5 minutes. […]

IC50 [1] [nM]	Compound	duration of immobile hanging of mice in water (mice)	effect on amnesia caused by Scopolamine, passive avoidance (male mice of BALB/c line)
78	CN1CCc2c(c3cc(S(=O)(=O)c4ccccc4)ccc3n2C)C1.Cl [1.1.1(4)•HCl, 2,5-dimethyl-8-(phenylsulfonyl)-2,3,4,5-tetrahydro-1H-γ-carboline hydrochloride]	decreased almost thrice	decrease amnesia
15	CN1CCc2[nH]c3ccc(S(=O)(=O)Nc4cccc(F)c4)cc3c2C1.Cl [1.2.1(3)•HCl, 2-methyl-2,3,4,5-tetrahydro-1H-γ-carboline-8-sulfonic acid 3-fluorophenyl amide hydrochloride]	decreased almost thrice	decrease amnesia
